Measurements: patent US6841661B2, “Glycopeptide antibacterial compounds, compositions containing same and methods of using same” (Princeton Univerisity, priority 1999, dated 2005)

What was measured:
[1] = test system: E. faecium CL 4931 (VanA); assay: microbe, parasite or virus in culture; type: cell-based; parameters: CL4931 (in vitro testing): unit not given here; conditions: Tables 7 and 8; unit not given
Excerpt: (§1) National Committee for Clinical Laboratory Standards (NCCLS) guidelines [Methods for Dilution Antimicrobial Susceptibility Tests for Bacteria that Grow Aerobically-Fourth Edition; Approved Standard (NCCLS Document M7-A4, January 1997)] are used to establish the assay, although variations are made to optimize the published method according to the specific needs of the present investigation.
(§2) The test panel currently includes eight enterococci and 13 staphylococci, which are selected based upon their antibiotic susceptibility profiles. The methicillin-sensitive Staphylococcus aureus (MSSA) strain MB2985 (Smith isolate) is used to assesses the potential for serum protein binding of the compounds. The paired Gram-negative strains ASP #49 (envA-) and ASP #50 (envA+) (M. Salvatore/N. Lee) are included to judge membrane effects. Table 3 presents a detailed description of the strains included in the panel, including some of the sources of the strains of bacteria.
(§3) The glycopeptide antibiotic teicoplanin is included whenever possible.
(§4) TSB, containing 10% HS* for vancomycin intermediate S. aurcus/methicillin-resistant S. aureus (VISA/MRSA) strains, is inoculated from an appropriate source (frozen broth or agar slant) and grown approximately 17 hr at 35° C. with shaking at 220 rpm. Cultures are grown in tubes with a volume of 5 ml for enterococci and 2 ml for all other strains.
(§5) Four milliliter (4 ml) overnight culture is added to 36 ml physiological saline to obtain tenfold dilutions (enterococci). Overnight culture (0.4 ml) is added to 39.6 ml saline to obtain 100-fold dilutions (all strains except enterococci). Diluted cultures are maintained on ice until time of inoculation of test plates.
(§6) The number of CFU/mL is determined on BHI agar plates, although this is not done routinely because titers of overnight cultures are relatively constant. The test media include: • BHI for enterococci and VISA/MRSA; • MH II (i.e., cation-adjusted Mueller-Hinton broth) for MRS, MSS and E. coli.; • MH II+HSA for MSSA is prepared as follows: • a. 2×MHII+86mg/ml HSA • b. Dissolve 4.3 g HSA in 50 ml autoclaved 2x MH II. • c. pH to 7.0 by adding 2M MOPS, sodium. • d. Filter sterilize using 0.22 μm Coming cellulose acetate filter, used because of reported low protein binding. • e. 1×MH II+43 mg/ml HSA • f. Dilute the 2×medium twofold and filter as above. 5.8.6. Preparation of Test Plates
(§7) Using a Denley liquid handling system (or similar automatic device), 100 μ1×medium is added to each well in columns 2-12 of a 96-well microtiter dish. Using a multichannel pipettor, 100 μl 2×medium is added to each well in column 1. Plates may be filled on the day prior to assay, wrapped in plastic bags and refrigerated.
(§8) Vancomycin, Schering 29482, and teicoplanin are prepared on a weight per volume basis using 10 mM 3-(N-morpholino)propane-sulfonic acid (MOPS) buffer pH 7. Test compounds are received in solution in appropriate solvent (typically as 1 mg/ml in DMSO) or are dissolved in appropriate solvent prior to further dilution in 10 mM MOPS buffer, ph7. Consistent with NCCLS guidelines, antibiotics are handled aseptically but are not otherwise sterilized.
(§9) 100 μl appropriately diluted antibiotic solution is added to the first well of the designated row of the 96-well microtiter dish and serially diluted by twofold across the row using the Denley liquid handling system. With the aid of a Dynatech NEC 2000 inoculator, each well of the microtiter dish is inoculated with 1.5 μl diluted overnight culture, yielding approximately 1-5×10^6 CFU/ml for enterococci and approximately 3-7×10^5 CFU/ml for all other strains. Dishes are placed in stacks of no more than five, wrapped in plastic bags and incubated at 35° C. • Indication of result(s) type (% INH, IC50, Zone size, etc.) • MIC=minimum inhibitory concentration ps 5.8.9. Interpretation of the Results on the Basis of Activity […]

[2] = test system: E. faecium CL 5053 (VanA); assay: microbe, parasite or virus in culture; type: cell-based; parameters: CL5053 (in vitro testing): unit not given here; conditions: Tables 7 and 8; unit not given
Excerpt: as §1, §2, §3, §4, §5, §6, §7, §8, §9

[3] = test system: E. faecium CL 5242 (VanA); assay: microbe, parasite or virus in culture; type: cell-based; parameters: CL5242 (in vitro testing): unit not given here; conditions: Tables 7 and 8; unit not given
Excerpt: as §1, §2, §3, §4, §5, §6, §7, §8, §9

[4] = test system: E. faecalis CL 4877 (VanB); assay: microbe, parasite or virus in culture; type: cell-based; parameters: CL4877 (in vitro testing): unit not given here; conditions: Tables 7 and 8; unit not given
Excerpt: as §1, §2, §3, §4, §5, §6, §7, §8, §9

[5] = test system: CL 4931, CL 5053, CL 5242 and CL 4877; type: cell-based, E. faecium, E. faecalis; parameters: unit not given here; conditions: mean of CL4931, CL5053, CL5242, CL4877; unit not given
Excerpt: as §1, §2, §3, §4, §5, §6, §7, §8, §9

CNC(CC(C)C)C(=O)NC1C(=O)NC(CC(N)=O)C(=O)NC2C(=O)NC3C(=O)NC(C(=O)NC(C(=O)O)c4cc(O)cc(O)c4-c4cc3ccc4O)C(O)c3ccc(c(Cl)c3)Oc3cc2cc(c3OC2OC(CNCc3ccco3)C(O)C(O)C2OC2CC(C)(NCc3ccc(OCc4ccc(Cl)c(Cl)c4)cc3)C(O)C(C)O2)Oc2ccc(cc2Cl)C1O (stereo not drawn) [Compound 145]
CL4931 (in vitro testing) [1]: 8
CL5053 (in vitro testing) [2]: 8
CL5242 (in vitro testing) [3]: 1
CL4877 (in vitro testing) [4]: 0.5
Mean [5]: 4.4

CNC(CC(C)C)C(=O)NC1C(=O)NC(CC(N)=O)C(=O)NC2C(=O)NC3C(=O)NC(C(=O)NC(C(=O)O)c4cc(O)cc(O)c4-c4cc3ccc4O)C(O)c3ccc(c(Cl)c3)Oc3cc2cc(c3OC2OC(CNCCO)C(O)C(O)C2OC2CC(C)(NCc3ccc(OCc4ccc(Cl)c(Cl)c4)cc3)C(O)C(C)O2)Oc2ccc(cc2Cl)C1O (stereo not drawn) [Compound 146]
CL4931 (in vitro testing) [1]: 8
CL5053 (in vitro testing) [2]: 8
CL5242 (in vitro testing) [3]: 1
CL4877 (in vitro testing) [4]: 0.5
Mean [5]: 4.4

CNCC1OC(Oc2c3cc4cc2Oc2ccc(cc2Cl)C(O)C2NC(=O)C(NC(=O)C4NC(=O)C(CC(N)=O)NC(=O)C(NC(=O)C(CC(C)C)NC)C(O)c4ccc(c(Cl)c4)O3)c3ccc(O)c(c3)-c3c(O)cc(O)cc3C(C(=O)O)NC2=O)C(OC2CC(C)(NCc3ccc(OCc4ccc(Cl)c(Cl)c4)cc3)C(O)C(C)O2)C(O)C1O (stereo not drawn) [Compound 147]
CL4931 (in vitro testing) [1]: 4
CL5053 (in vitro testing) [2]: 8
CL5242 (in vitro testing) [3]: 2
CL4877 (in vitro testing) [4]: 4
Mean [5]: 4.5

CCCNCC1OC(Oc2c3cc4cc2Oc2ccc(cc2Cl)C(O)C2NC(=O)C(NC(=O)C4NC(=O)C(CC(N)=O)NC(=O)C(NC(=O)C(CC(C)C)NC)C(O)c4ccc(c(Cl)c4)O3)c3ccc(O)c(c3)-c3c(O)cc(O)cc3C(C(=O)O)NC2=O)C(OC2CC(C)(NCc3ccc(OCc4ccc(Cl)c(Cl)c4)cc3)C(O)C(C)O2)C(O)C1O (stereo not drawn) [Compound 148]
CL4931 (in vitro testing) [1]: 8
CL5053 (in vitro testing) [2]: 8
CL5242 (in vitro testing) [3]: 1
CL4877 (in vitro testing) [4]: 1
Mean [5]: 4.5

CNC(CC(C)C)C(=O)NC1C(=O)NC(CC(N)=O)C(=O)NC2C(=O)NC3C(=O)NC(C(=O)NC(C(=O)O)c4cc(O)cc(O)c4-c4cc3ccc4O)C(O)c3ccc(c(Cl)c3)Oc3cc2cc(c3OC2OC(CNCc3ccc(Cl)cc3)C(O)C(O)C2OC2CC(C)(NCc3ccc(OCc4ccc(Cl)c(Cl)c4)cc3)C(O)C(C)O2)Oc2ccc(cc2Cl)C1O (stereo not drawn) [Compound 149]
CL4931 (in vitro testing) [1]: 8
CL5053 (in vitro testing) [2]: 8
CL5242 (in vitro testing) [3]: 2
CL4877 (in vitro testing) [4]: 0.25
Mean [5]: 4.6

C=CCNCC1OC(Oc2c3cc4cc2Oc2ccc(cc2Cl)C(O)C2NC(=O)C(NC(=O)C4NC(=O)C(CC(N)=O)NC(=O)C(NC(=O)C(CC(C)C)NC)C(O)c4ccc(c(Cl)c4)O3)c3ccc(O)c(c3)-c3c(O)cc(O)cc3C(C(=O)O)NC2=O)C(OC2CC(C)(NCc3ccc(OCc4ccc(Cl)c(Cl)c4)cc3)C(O)C(C)O2)C(O)C1O (stereo not drawn) [Compound 150]
CL4931 (in vitro testing) [1]: 8
CL5053 (in vitro testing) [2]: 8
CL5242 (in vitro testing) [3]: 2
CL4877 (in vitro testing) [4]: 4
Mean [5]: 5.5

CNC(CC(C)C)C(=O)NC1C(=O)NC(CC(N)=O)C(=O)NC2C(=O)NC3C(=O)NC(C(=O)NC(C(=O)O)c4cc(O)cc(O)c4-c4cc3ccc4O)C(O)c3ccc(c(Cl)c3)Oc3cc2cc(c3OC2OC(CNC(=O)Cc3ccccc3)C(O)C(O)C2OC2CC(C)(NCc3ccc(OCc4ccc(Cl)c(Cl)c4)cc3)C(O)C(C)O2)Oc2ccc(cc2Cl)C1O (stereo not drawn) [Compound 151]
CL4931 (in vitro testing) [1]: 8
CL5053 (in vitro testing) [2]: 16
CL5242 (in vitro testing) [3]: 2
CL4877 (in vitro testing) [4]: 0.5
Mean [5]: 6.6

CNC(CC(C)C)C(=O)NC1C(=O)NC(CC(N)=O)C(=O)NC2C(=O)NC3C(=O)NC(C(=O)NC(C(=O)O)c4cc(O)cc(O)c4-c4cc3ccc4O)C(O)c3ccc(c(Cl)c3)Oc3cc2cc(c3OC2OC(CNCc3ccccc3Cl)C(O)C(O)C2OC2CC(C)(NCc3ccc(OCc4ccc(Cl)c(Cl)c4)cc3)C(O)C(C)O2)Oc2ccc(cc2Cl)C1O (stereo not drawn) [Compound 153]
CL4931 (in vitro testing) [1]: 8
CL5053 (in vitro testing) [2]: 16
CL5242 (in vitro testing) [3]: 4
CL4877 (in vitro testing) [4]: 0.12
Mean [5]: 7.0

CNC(CC(C)C)C(=O)NC1C(=O)NC(CC(N)=O)C(=O)NC2C(=O)NC3C(=O)NC(C(=O)NC(C(=O)O)c4cc(O)cc(O)c4-c4cc3ccc4O)C(O)c3ccc(c(Cl)c3)Oc3cc2cc(c3OC2OC(CNCC3CCNCC3)C(O)C(O)C2OC2CC(C)(NCc3ccc(OCc4ccc(Cl)c(Cl)c4)cc3)C(O)C(C)O2)Oc2ccc(cc2Cl)C1O (stereo not drawn) [Compound 155]
CL4931 (in vitro testing) [1]: 16
CL5053 (in vitro testing) [2]: 16
CL5242 (in vitro testing) [3]: 4
CL4877 (in vitro testing) [4]: 1
Mean [5]: 9.3

CNC(CC(C)C)C(=O)NC1C(=O)NC(CC(N)=O)C(=O)NC2C(=O)NC3C(=O)NC(C(=O)NC(C(=O)O)c4cc(O)cc(O)c4-c4cc3ccc4O)C(O)c3ccc(c(Cl)c3)Oc3cc2cc(c3OC2OC(CNCC3CCCCO3)C(O)C(O)C2OC2CC(C)(NCc3ccc(OCc4ccc(Cl)c(Cl)c4)cc3)C(O)C(C)O2)Oc2ccc(cc2Cl)C1O (stereo not drawn) [Compound 156]
CL4931 (in vitro testing) [1]: 16
CL5053 (in vitro testing) [2]: 16
CL5242 (in vitro testing) [3]: 2
CL4877 (in vitro testing) [4]: 4
Mean [5]: 9.5

CNC(CC(C)C)C(=O)NC1C(=O)NC(CC(N)=O)C(=O)NC2C(=O)NC3C(=O)NC(C(=O)NC(C(=O)O)c4cc(O)cc(O)c4-c4cc3ccc4O)C(O)c3ccc(c(Cl)c3)Oc3cc2cc(c3OC2OC(CNCCC#N)C(O)C(O)C2OC2CC(C)(NCc3ccc(OCc4ccc(Cl)c(Cl)c4)cc3)C(O)C(C)O2)Oc2ccc(cc2Cl)C1O (stereo not drawn) [Compound 157]
CL4931 (in vitro testing) [1]: 16
CL5053 (in vitro testing) [2]: 16
CL5242 (in vitro testing) [3]: 4
CL4877 (in vitro testing) [4]: 4
Mean [5]: 10.0

CNC(CC(C)C)C(=O)NC1C(=O)NC(CC(N)=O)C(=O)NC2C(=O)NC3C(=O)NC(C(=O)NC(C(=O)O)c4cc(O)cc(O)c4-c4cc3ccc4O)C(O)c3ccc(c(Cl)c3)Oc3cc2cc(c3OC2OC(CNCc3ccc(Cl)c(Cl)c3)C(O)C(O)C2OC2CC(C)(NCc3ccc(OCc4ccc(Cl)c(Cl)c4)cc3)C(O)C(C)O2)Oc2ccc(cc2Cl)C1O (stereo not drawn) [Compound 158]
CL4931 (in vitro testing) [1]: 16
CL5053 (in vitro testing) [2]: 16
CL5242 (in vitro testing) [3]: 4
CL4877 (in vitro testing) [4]: 4
Mean [5]: 10.0
